Organism: Rattus norvegicus
Experiment: DrugMatrix - Regimen: Daily Repeat
Format: toxicity, organism-based, Sprague-Dawley
Parameters: regimen Daily Repeat, gender Male, age 6-8 weeks
Settings: in vivo, po, route oral GAVAGE, vehicle .5 % CMC; for ABSOLUTE BASOPHIL / ABSOLUTE EOSINOPHIL / ABSOLUTE LYMPHOCYTE / ABSOLUTE MONOCYTE / ABSOLUTE SEGMENTED NEUTROPHIL / BASOPHIL / EOSINOPHIL / ERYTHROCYTE COUNT / HEMATOCRIT / HEMOGLOBIN / LEUKOCYTE COUNT / LYMPHOCYTE / MEAN CORPUSCULAR HEMOGLOBIN / MEAN CORPUSCULAR HEMOGLOBIN CONCENTRATION / MEAN CORPUSCULAR VOLUME / MONOCYTE / NEUTROPHIL / NUCLEATED RED BLOOD CELLS / PLATELET COUNT: tissue Blood; for ALANINE AMINOTRANSFERASE / ALBUMIN / ALKALINE PHOSPHATASE / ASPARTATE AMINOTRANSFERASE / BLOOD UREA NITROGEN / CARBON DIOXIDE / CHLORIDE / CHOLESTEROL / CREATINE PHOSPHOKINASE / CREATININE / GLUCOSE / LACTATE DEHYDROGENASE / LIPASE / PHOSPHORUS / POTASSIUM / SODIUM / TOTAL BILIRUBIN / TOTAL PROTEIN / URIC ACID: tissue Plasma
[1] = 500 mg/kg, 120 h, dose level Low, time 5 day
[2] = 1500 mg/kg, 72 h, dose level High, time 3 day
[3] = 1500 mg/kg, 120 h, dose level High, time 5 day

SMILES: CC(C)(Sc1cc(C(C)(C)C)c(O)c(C(C)(C)C)c1)Sc1cc(C(C)(C)C)c(O)c(C(C)(C)C)c1 [PROBUCOL]
- ABSOLUTE BASOPHIL [1]: 0 CELLS/uL
- ABSOLUTE EOSINOPHIL [1]: 211 CELLS/uL
- ABSOLUTE LYMPHOCYTE [1]: 10866.33 CELLS/uL
- ABSOLUTE MONOCYTE [1]: 0 CELLS/uL
- ABSOLUTE SEGMENTED NEUTROPHIL [1]: 1022.67 CELLS/uL
- BASOPHIL [1]: 0%
- EOSINOPHIL [1]: 1.67%
- ERYTHROCYTE COUNT [1]: 5.74 x10E6/uL
- HEMATOCRIT [1]: 36.53%
- HEMOGLOBIN [1]: 13.67 G/DL
- LEUKOCYTE COUNT [1]: 12.1 x10E3/uL
- LYMPHOCYTE [1]: 90%
- MEAN CORPUSCULAR HEMOGLOBIN [1]: 23.87 pg
- MEAN CORPUSCULAR HEMOGLOBIN CONCENTRATION [1]: 37.43 G/DL
- MEAN CORPUSCULAR VOLUME [1]: 63.7 fL
- MONOCYTE [1]: 0%
- NEUTROPHIL [1]: 8.33%
- NUCLEATED RED BLOOD CELLS [1]: 0 /100WBC
- PLATELET COUNT [1]: 1159.33 x10E3/uL
- ALANINE AMINOTRANSFERASE [1]: 45.67 u/L
- ALBUMIN [1]: 4.33 G/DL
- ALKALINE PHOSPHATASE [1]: 362 u/L
- ASPARTATE AMINOTRANSFERASE [1]: 76.33 u/L
- BLOOD UREA NITROGEN [1]: 15.33 mg/dL
- CARBON DIOXIDE [1]: 25.67 mmol/L
- CHLORIDE [1]: 102 MEQ/L
- CHOLESTEROL [1]: 70.33 mg/dL
- CREATINE PHOSPHOKINASE [1]: 180.67 u/L
- CREATININE [1]: 0.2 mg/dL
- GLUCOSE [1]: 163.67 mg/dL
- LACTATE DEHYDROGENASE [1]: 162.67 u/L
- LIPASE [1]: 9 u/L
- PHOSPHORUS [1]: 11.63 mg/dL
- POTASSIUM [1]: 6.21 MEQ/L
- SODIUM [1]: 144 MEQ/L
- TOTAL BILIRUBIN [1]: 0.2 mg/dL
- TOTAL PROTEIN [1]: 6.1 G/DL
- URIC ACID [1]: 1.83 mg/dL
- ABSOLUTE BASOPHIL [2]: 0 CELLS/uL
- ABSOLUTE EOSINOPHIL [2]: 183 CELLS/uL
- ABSOLUTE LYMPHOCYTE [2]: 12835.33 CELLS/uL
- ABSOLUTE MONOCYTE [2]: 38 CELLS/uL
- ABSOLUTE SEGMENTED NEUTROPHIL [2]: 1443.67 CELLS/uL
- BASOPHIL [2]: 0%
- EOSINOPHIL [2]: 1.33%
- ERYTHROCYTE COUNT [2]: 5.49 x10E6/uL
- HEMATOCRIT [2]: 34.77%
- HEMOGLOBIN [2]: 13.37 G/DL
- LEUKOCYTE COUNT [2]: 14.5 x10E3/uL
- LYMPHOCYTE [2]: 88.33%
- MEAN CORPUSCULAR HEMOGLOBIN [2]: 24.37 pg
- MEAN CORPUSCULAR HEMOGLOBIN CONCENTRATION [2]: 38.47 G/DL
- MEAN CORPUSCULAR VOLUME [2]: 63.33 fL
- MONOCYTE [2]: 0.33%
- NEUTROPHIL [2]: 10%
- NUCLEATED RED BLOOD CELLS [2]: 0 /100WBC
- PLATELET COUNT [2]: 1374.67 x10E3/uL
- ALANINE AMINOTRANSFERASE [2]: 49.33 u/L
- ALBUMIN [2]: 4.2 G/DL
- ALKALINE PHOSPHATASE [2]: 412 u/L
- ASPARTATE AMINOTRANSFERASE [2]: 77.33 u/L
- BLOOD UREA NITROGEN [2]: 14.67 mg/dL
- CARBON DIOXIDE [2]: 27.33 mmol/L
- CHLORIDE [2]: 100 MEQ/L
- CHOLESTEROL [2]: 65.67 mg/dL
- CREATINE PHOSPHOKINASE [2]: 249.33 u/L
- CREATININE [2]: 0.19 mg/dL
- GLUCOSE [2]: 153.67 mg/dL
- LACTATE DEHYDROGENASE [2]: 144 u/L
- LIPASE [2]: 9 u/L
- PHOSPHORUS [2]: 12.87 mg/dL
- POTASSIUM [2]: 7.14 MEQ/L
- SODIUM [2]: 143.67 MEQ/L
- TOTAL BILIRUBIN [2]: 0.17 mg/dL
- TOTAL PROTEIN [2]: 5.83 G/DL
- URIC ACID [2]: 1.67 mg/dL
- ABSOLUTE BASOPHIL [3]: 0 CELLS/uL
- ABSOLUTE EOSINOPHIL [3]: 76.67 CELLS/uL
- ABSOLUTE LYMPHOCYTE [3]: 11157.33 CELLS/uL
- ABSOLUTE MONOCYTE [3]: 39 CELLS/uL
- ABSOLUTE SEGMENTED NEUTROPHIL [3]: 1027 CELLS/uL
- BASOPHIL [3]: 0%
- EOSINOPHIL [3]: 0.67%
- ERYTHROCYTE COUNT [3]: 5.53 x10E6/uL
- HEMATOCRIT [3]: 34.87%
- HEMOGLOBIN [3]: 13.07 G/DL
- LEUKOCYTE COUNT [3]: 12.3 x10E3/uL
- LYMPHOCYTE [3]: 90.67%
- MEAN CORPUSCULAR HEMOGLOBIN [3]: 23.63 pg
- MEAN CORPUSCULAR HEMOGLOBIN CONCENTRATION [3]: 37.5 G/DL
- MEAN CORPUSCULAR VOLUME [3]: 63.03 fL
- MONOCYTE [3]: 0.33%
- NEUTROPHIL [3]: 8.33%
- NUCLEATED RED BLOOD CELLS [3]: 0 /100WBC
- PLATELET COUNT [3]: 1307 x10E3/uL
- ALANINE AMINOTRANSFERASE [3]: 47.67 u/L
- ALBUMIN [3]: 4.33 G/DL
- ALKALINE PHOSPHATASE [3]: 423.67 u/L
- ASPARTATE AMINOTRANSFERASE [3]: 74 u/L
- BLOOD UREA NITROGEN [3]: 15.33 mg/dL
- CARBON DIOXIDE [3]: 26.33 mmol/L
- CHLORIDE [3]: 102.33 MEQ/L
- CHOLESTEROL [3]: 63 mg/dL
- CREATINE PHOSPHOKINASE [3]: 227.67 u/L
- CREATININE [3]: 0.2 mg/dL
- GLUCOSE [3]: 158.67 mg/dL
- LACTATE DEHYDROGENASE [3]: 174.33 u/L
- LIPASE [3]: 8.33 u/L
- PHOSPHORUS [3]: 12.1 mg/dL
- POTASSIUM [3]: 6.79 MEQ/L
- SODIUM [3]: 145.27 MEQ/L
- TOTAL BILIRUBIN [3]: 0.2 mg/dL
- TOTAL PROTEIN [3]: 6.13 G/DL
- URIC ACID [3]: 1.63 mg/dL
